Measured values taken from patent US11083725B2 (priority 2014, dated 2021).

Test system: NHBE cells
Test: Biolog metabolic array: substrate use by NHBE cells with or without CA09 infection
Assay type: cell-based, human
Details: for Substrate use, 590 nm absorbance normalized to zero hour, 0 hr: Biolog PMM2, 0 hr; for Substrate use, 590 nm absorbance normalized to zero hour, 1 hr: Biolog PMM2, 1 hr; for Substrate use, 590 nm absorbance normalized to zero hour, 5 hr: Biolog PMM2, 5 hr; for Substrate use, 590 nm absorbance normalized to zero hour, 7 hr: Biolog PMM2, 7 hr
[1] = Control (uninfected) NHBE cells
[2] = Virus (CA09-infected, MOI 1) NHBE cells
[3] = Virus: CA09-infected NHBE cells, MOI 1, Biolog PMM2
[4] = Virus (CA09-infected NHBE cells, MOI 1)

| SMILES | 590 nm absorbance normalized to zero hour (substrate use), 0 hr [1] | 590 nm absorbance normalized to zero hour (substrate use), 1 hr [1] | 590 nm absorbance normalized to zero hour (substrate use), 2 hr [1] | 590 nm absorbance normalized to zero hour (substrate use), 3 hr [1] | 590 nm absorbance normalized to zero hour (substrate use), 4 hr [1] | 590 nm absorbance normalized to zero hour (substrate use), 6 hr [1] | 590 nm absorbance normalized to zero hour (substrate use), 8 hr [1] | 590 nm absorbance normalized to zero hour (substrate use), 9 hr [1] | 590 nm absorbance normalized to zero hour (substrate use), 10 hr [1] | 590 nm absorbance normalized to zero hour (substrate use), 11 hr [1] | Substrate use, 590 nm absorbance normalized to zero hour, 0 hr [1] | Substrate use, 590 nm absorbance normalized to zero hour, 1 hr [1] | Substrate use, 590 nm absorbance normalized to zero hour, 5 hr [1] | Substrate use, 590 nm absorbance normalized to zero hour, 7 hr [1] | 590 nm absorbance normalized to zero hour (substrate use), 0 hr [3] | 590 nm absorbance normalized to zero hour (substrate use), 1 hr [3] | 590 nm absorbance normalized to zero hour (substrate use), 2 hr [3] | 590 nm absorbance normalized to zero hour (substrate use), 3 hr [3] | 590 nm absorbance normalized to zero hour (substrate use), 4 hr [3] | 590 nm absorbance normalized to zero hour (substrate use), 5 hr [3] | other results |
| --- | --- | --- | --- | --- | --- | --- | --- | --- | --- | --- | --- | --- | --- | --- | --- | --- | --- | --- | --- | --- | --- |
| OC[C@H]1O[C@@H]2O[C@H]3[C@H](O)[C@@H](O)[C@@H](O[C@H]4[C@H](O)[C@@H](O)[C@@H](O[C@H]5[C@H](O)[C@@H](O)[C@@H](O[C@H]6[C@H](O)[C@@H](O)[C@@H](O[C@H]7[C@H](O)[C@@H](O)[C@@H](O[C@H]1[C@H](O)[C@H]2O)O[C@@H]7CO)O[C@@H]6CO)O[C@@H]5CO)O[C@@H]4CO)O[C@@H]3CO [a-Cyclo-dextrin] | 1.00 | 1.89 | 2.66 | 3.24 | 3.50 | 4.31 | 5.25 | 5.99 | 6.37 | 5.86 | 1.00 | 1.89 | 4.31 | 4.96 | 1.00 | 1.86 | 2.62 | 2.99 | 3.18 | 3.75 | 590 nm absorbance normalized to zero hour (substrate use), 0 hr [2]: 1.00; 590 nm absorbance normalized to zero hour (substrate use), 1 hr [2]: 1.86; 590 nm absorbance normalized to zero hour (substrate use), 2 hr [2]: 2.62; 590 nm absorbance normalized to zero hour (substrate use), 3 hr [2]: 2.99; 590 nm absorbance normalized to zero hour (substrate use), 4 hr [2]: 3.18; 590 nm absorbance normalized to zero hour (substrate use), 5 hr [2]: 3.75; 590 nm absorbance normalized to zero hour (substrate use), 6 hr [2]: 4.06; 590 nm absorbance normalized to zero hour (substrate use), 7 hr [2]: 4.29; 590 nm absorbance normalized to zero hour (substrate use), 8 hr [2]: 4.56; 590 nm absorbance normalized to zero hour (substrate use), 9 hr [2]: 4.96; 590 nm absorbance normalized to zero hour (substrate use), 10 hr [2]: 5.19; 590 nm absorbance normalized to zero hour (substrate use), 11 hr [2]: 4.09; 590 nm absorbance normalized to zero hour (substrate use), 6 hr [3]: 4.06; 590 nm absorbance normalized to zero hour (substrate use), 7 hr [3]: 4.29; 590 nm absorbance normalized to zero hour (substrate use), 8 hr [3]: 4.56; 590 nm absorbance normalized to zero hour (substrate use), 9 hr [3]: 4.96; 590 nm absorbance normalized to zero hour (substrate use), 10 hr [3]: 5.19; 590 nm absorbance normalized to zero hour (substrate use), 11 hr [3]: 4.09 |
| OC[C@H]1O[C@H](OC[C@H]2OC(O)(CO)[C@@H](O)[C@@H]2O)[C@H](O)[C@@H](O)[C@@H]1O (stereo partly shown) [Palatinose] | 1.00 | 1.31 | 1.79 | 1.68 | 1.81 | 2.44 | 2.16 | 2.14 | 1.94 | 1.44 | 1.00 | 1.31 | 2.10 | 2.18 | 1.00 | 0.18 | 0.24 | 0.28 | 0.29 | 0.34 | 590 nm absorbance normalized to zero hour (substrate use), 0 hr [4]: 1.00; 590 nm absorbance normalized to zero hour (substrate use), 1 hr [4]: 0.18; 590 nm absorbance normalized to zero hour (substrate use), 2 hr [4]: 0.24; 590 nm absorbance normalized to zero hour (substrate use), 3 hr [4]: 0.28; 590 nm absorbance normalized to zero hour (substrate use), 4 hr [4]: 0.29; 590 nm absorbance normalized to zero hour (substrate use), 5 hr [4]: 0.34; 590 nm absorbance normalized to zero hour (substrate use), 6 hr [4]: 0.36; 590 nm absorbance normalized to zero hour (substrate use), 7 hr [4]: 0.38; 590 nm absorbance normalized to zero hour (substrate use), 8 hr [4]: 0.41; 590 nm absorbance normalized to zero hour (substrate use), 9 hr [4]: 0.45; 590 nm absorbance normalized to zero hour (substrate use), 10 hr [4]: 0.46; 590 nm absorbance normalized to zero hour (substrate use), 11 hr [4]: 0.50; 590 nm absorbance normalized to zero hour (substrate use), 6 hr [3]: 0.36; 590 nm absorbance normalized to zero hour (substrate use), 7 hr [3]: 0.38; 590 nm absorbance normalized to zero hour (substrate use), 8 hr [3]: 0.41; 590 nm absorbance normalized to zero hour (substrate use), 9 hr [3]: 0.45; 590 nm absorbance normalized to zero hour (substrate use), 10 hr [3]: 0.46; 590 nm absorbance normalized to zero hour (substrate use), 11 hr [3]: 0.50 |
